Measured values published in US11446287B2, “Compounds and methods for EP300 or CBP modulation and indications therefor” (Opna Immuno-Oncology SA, priority 2019, dated 2022).

Each molecule was assayed against T1, Recombinant human EP300 containing the bromodomain (EP300-BD (1040-1161)) (Homo sapiens, UniProt Q09472) (assay: EP300 Alphascreen binding assay).
T1 construct: Recombinant human EP300 bromodomain (EP300-BD (1040-1161)); made in house; host or cells: E. coli BL21-CodonPlus (DE3), modified pET vector
T1 sequence (Q09472 1040-1161): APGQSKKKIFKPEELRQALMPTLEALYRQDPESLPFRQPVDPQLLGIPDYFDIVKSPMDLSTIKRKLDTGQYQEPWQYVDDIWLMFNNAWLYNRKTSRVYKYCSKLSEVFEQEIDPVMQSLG
How it was run: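 Displacement of a biotinylated acetyl-K56 histone H3 peptide from the N-His bromodomain construct (1040-1161) measured by AlphaScreen proximity, beads at 7.5 μg/ml final, read 60 min after addition. Protein, peptide and compound first incubated 1 h at room temperature, pH 7.5 HEPES buffer; IC50 by four-parameter logistic fit.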

`Cc1noc(C)c1-c1cnc2c(c1)c(-c1ccc(C(=O)O)cc1Cl)cn2C(c1ccccn1)C1CCCC1` (centres unmarked) [P-0027, 3-chloro-4-(1-(cyclopentyl(pyridin-2-yl)methyl)-5-(3,5-dimethylisoxazol-4-yl)-1H-pyrrolo[2,3-b]pyridin-3-yl)benzoic acid] and `Cc1cc(-c2cn(C(c3ccccn3)C3CCCC3)c3ncc(-c4c(C)noc4C)cc23)ccc1C(=O)O` (centres unmarked) [P-0028, 4-(1-(cyclopentyl(pyridin-2-yl)methyl)-5-(3,5-dimethylisoxazol-4-yl)-1H-pyrrolo[2,3-b]pyridin-3-yl)-2-methylbenzoic acid] fall in the same range of IC50: 0.1 to 1000 nM for the first, 0.1 to 1000 nM for the second.

First: Cc1noc(C)c1-c1cnc2c(c1)c(-c1ccc(C(=O)O)c(C(F)(F)F)c1)cn2C(c1ccccn1)C1CCCC1 (centres unmarked) [P-0029, 4-(1-(cyclopentyl(pyridin-2-yl)methyl)-5-(3,5-dimethylisoxazol-4-yl)-1H-pyrrolo[2,3-b]pyridin-3-yl)-2-(trifluoromethyl)benzoic acid]
Second: Cc1noc(C)c1-c1cnc2c(c1)c(-c1ccc(C(=O)O)c(O)c1)cn2C(c1ccccn1)C1CCCC1 (centres unmarked) [P-0030, 4-(1-(cyclopentyl(pyridin-2-yl)methyl)-5-(3,5-dimethylisoxazol-4-yl)-1H-pyrrolo[2,3-b]pyridin-3-yl)-2-hydroxybenzoic acid]
The IC50 of the first is lower: 0.1 to 1000 nM for the first, 1000 to 8000 nM for the second. The first is the more potent here.

`Cc1noc(C)c1-c1cnc2c(c1)c(-c1ccc(CC(=O)O)cc1)cn2C(c1ccccn1)C1CCCC1` (centres unmarked) [P-0031, 2-(4-(1-(cyclopentyl(pyridin-2-yl)methyl)-5-(3,5-dimethylisoxazol-4-yl)-1H-pyrrolo[2,3-b]pyridin-3-yl)phenyl)acetic acid] and `Cc1noc(C)c1-c1cnc2c(c1)c(-c1ccc(C(C)(C)C(=O)O)cc1)cn2C(c1ccccn1)C1CCCC1` (centres unmarked) [P-0032, 2-(4-(1-(cyclopentyl(pyridin-2-yl)methyl)-5-(3,5-dimethylisoxazol-4-yl)-1H-pyrrolo[2,3-b]pyridin-3-yl)phenyl)-2-methylpropanoic acid] fall in the same range of IC50: 0.1 to 1000 nM for the first, 0.1 to 1000 nM for the second.

`Cc1noc(C)c1-c1cnc2c(c1)c(-c1ccc(C3(C(=O)O)CC3)cc1)cn2C(c1ccccn1)C1CCCC1` (centres unmarked) [P-0033, 1-(4-(1-(cyclopentyl(pyridin-2-yl)methyl)-5-(3,5-dimethylisoxazol-4-yl)-1H-pyrrolo[2,3-b]pyridin-3-yl)phenyl)cyclopropane-1-carboxylic acid] and `Cc1noc(C)c1-c1cnc2c(c1)c(-c1ccc(C(F)(F)C(=O)O)cc1)cn2C(c1ccccn1)C1CCCC1` (centres unmarked) [P-0034, 2-(4-(1-(cyclopentyl(pyridin-2-yl)methyl)-5-(3,5-dimethylisoxazol-4-yl)-1H-pyrrolo[2,3-b]pyridin-3-yl)phenyl)-2,2-difluoroacetic acid] fall in the same range of IC50: 0.1 to 1000 nM for the first, 0.1 to 1000 nM for the second.

`COc1ncccc1-n1cc(-c2ccc(C(=O)O)cc2OC(F)(F)F)c2cc(-c3c(C)noc3C)cnc21` [P-0316, 4-(5-(3,5-dimethylisoxazol-4-yl)-1-(2-methoxypyridin-3-yl)-1H-pyrrolo[2,3-b]pyridin-3-yl)-3-(trifluoromethoxy)benzoic acid] and `Cc1ncccc1-n1cc(-c2ccc(C(=O)O)cc2OC(F)(F)F)c2cc(-c3c(C)noc3C)cnc21` [P-0317, 4-(5-(3,5-dimethylisoxazol-4-yl)-1-(2-methylpyridin-3-yl)-1H-pyrrolo[2,3-b]pyridin-3-yl)-3-(trifluoromethoxy)benzoic acid] fall in the same range of IC50: 0.1 to 1000 nM for the first, 0.1 to 1000 nM for the second.

`Cc1noc(C)c1-c1cnc2c(c1)c(-c1ccc(C(=O)O)cc1OC(F)(F)F)cn2-c1cnn(C)c1` [P-0318, 4-(5-(3,5-dimethylisoxazol-4-yl)-1-(1-methyl-1H-pyrazol-4-yl)-1H-pyrrolo[2,3-b]pyridin-3-yl)-3-(trifluoromethoxy)benzoic acid] and `Cc1noc(C)c1-c1cnc2c(c1)c(-c1ccc(C(=O)O)cc1OC(F)(F)F)cn2-c1cncnc1` [P-0319, 4-(5-(3,5-dimethylisoxazol-4-yl)-1-(pyrimidin-5-yl)-1H-pyrrolo[2,3-b]pyridin-3-yl)-3-(trifluoromethoxy)benzoic acid] fall in the same range of IC50: 0.1 to 1000 nM for the first, 0.1 to 1000 nM for the second.

`Cc1noc(C)c1-c1cnc2c(c1)c(-c1ccc(C(=O)O)cc1OC(F)(F)F)cn2-c1cnc(N)nc1` [P-0320, 4-(1-(2-aminopyrimidin-5-yl)-5-(3,5-dimethylisoxazol-4-yl)-1H-pyrrolo[2,3-b]pyridin-3-yl)-3-(trifluoromethoxy)benzoic acid] and `Cc1noc(C)c1-c1cnc2c(c1)c(-c1ccc(C(=O)O)cc1OC(F)(F)F)cn2-c1cnc(N(C)C)nc1` [P-0321] fall in the same range of IC50: 0.1 to 1000 nM for the first, 0.1 to 1000 nM for the second.

`Cc1noc(C)c1-c1cnc2c(c1)c(-c1ccc(C(=O)O)cc1OC(F)(F)F)cn2-c1ccc(C(=O)O)cc1` [P-0322, 4-(1-(4-carboxyphenyl)-5-(3,5-dimethylisoxazol-4-yl)-1H-pyrrolo[2,3-b]pyridin-3-yl)-3-(trifluoromethoxy)benzoic acid] and `Cc1noc(C)c1-c1cnc2c(c1)c(-c1ccc(C(=O)O)cc1OC(F)(F)F)cn2-c1ccc(C(N)=O)cc1` [P-0323, 4-(1-(4-carbamoylphenyl)-5-(3,5-dimethylisoxazol-4-yl)-1H-pyrrolo[2,3-b]pyridin-3-yl)-3-(trifluoromethoxy)benzoic acid] fall in the same range of IC50: 0.1 to 1000 nM for the first, 0.1 to 1000 nM for the second.

`COc1cc(C(=O)O)ncc1-c1cn(-c2ccncc2Cl)c2ncc(-c3c(C)noc3C)cc12` [P-0324, 5-(1-(3-chloropyridin-4-yl)-5-(3,5-dimethylisoxazol-4-yl)-1H-pyrrolo[2,3-b]pyridin-3-yl)-4-methoxypicolinic acid] and `CCOc1cc(C(=O)O)c(F)cc1-c1cn(-c2ccc(F)cc2F)c2ncc(-c3c(C)noc3C)cc12` [P-0330, 4-(1-(2,4-difluorophenyl)-5-(3,5-dimethylisoxazol-4-yl)-1H-pyrrolo[2,3-b]pyridin-3-yl)-5-ethoxy-2-fluorobenzoic acid] fall in the same range of IC50: 0.1 to 1000 nM for the first, 0.1 to 1000 nM for the second.

`Cc1noc(C)c1-c1cnc2c(c1)c(-c1ccc(C(=O)O)cc1OCC(F)F)cn2[C@H]1CCOC1` [P-0325, (S)-3-(2,2-difluoroethoxy)-4-(5-(3,5-dimethylisoxazol-4-yl)-1-(tetrahydrofuran-3-yl)-1H-pyrrolo[2,3-b]pyridin-3-yl)benzoic acid] and `Cc1noc(C)c1-c1cnc2c(c1)c(-c1ccc(C(=O)O)cc1OCC(F)F)cn2-c1cnc(N2CCC2)nc1` [P-0328, 4-(1-(2-(azetidin-1-yl)pyrimidin-5-yl)-5-(3,5-dimethylisoxazol-4-yl)-1H-pyrrolo[2,3-b]pyridin-3-yl)-3-(2,2-difluoroethoxy)benzoic acid] fall in the same range of IC50: 0.1 to 1000 nM for the first, 0.1 to 1000 nM for the second.

`CCn1cc(-n2cc(-c3ccc(C(=O)O)cc3OCC(F)F)c3cc(-c4c(C)noc4C)cnc32)c(C)n1` [P-0326, 3-(2,2-difluoroethoxy)-4-(5-(3,5-dimethylisoxazol-4-yl)-1-(1-ethyl-3-methyl-1H-pyrazol-4-yl)-1H-pyrrolo[2,3-b]pyridin-3-yl)benzoic acid] and `Cc1noc(C)c1-c1cnc2c(c1)c(-c1c(F)cc(C(=O)O)cc1OCC(F)F)cn2-c1ccccc1` [P-0327, 3-(2,2-difluoroethoxy)-4-(5-(3,5-dimethylisoxazol-4-yl)-1-phenyl-1H-pyrrolo[2,3-b]pyridin-3-yl)-5-fluorobenzoic acid] fall in the same range of IC50: 0.1 to 1000 nM for the first, 0.1 to 1000 nM for the second.

`CCOc1cc(C(=O)O)nc(OCC)c1-c1cn(-c2ccc(F)cc2F)c2ncc(-c3c(C)noc3C)cc12` [P-0329, 5-(1-(2,4-difluorophenyl)-5-(3,5-dimethylisoxazol-4-yl)-1H-pyrrolo[2,3-b]pyridin-3-yl)-4,6-diethoxypicolinic acid] gave an IC50 of 0.1 to 1000 nM.
